In US6541203B2, “Detecting structural or synthetic information about chemical compounds” (President and Fellows of Harvard College, priority 1998, dated 2003) one finds Kd and Staining of beads data, which are given here for two molecules.

The target in one assay is RNA molecules. The conditions noted are these: specific RNA molecules; cited from earlier work.
The next assay has as its system anti-dig. Briefly: Detection of hapten on TANTAGEL beads with anti-dig and AP-coupled secondary antibody. Format: binding, mouse. Conditions: 100% coupling on the beads. As to the method:
Ninety (90) micrometer TANTAGEL-amine beads were mixed with dig-NHS ester at different concentrations to covalently label the beads with dig. Dig-NHS was added in amounts sufficient to label 100%, 10%, 1%, 0.1%, 0.01% and 0.001% of the amino groups. The remaining amino groups were capped with acetic anhydride, and the beads were washed.
Dig-labeled beads were incubated with anti-dig (1 microgram/ml) in the presence of BSA and buffer. The beads were washed, incubated with alkaline phosphatase (AP)-coupled goat anti-mouse antibody, and washed again. Then a chromogenic precipitating substrate (commercially available) for detecting AP was added. Blue color on the beads indicates the presence of AP, and thus effective detection of the dig hapten by antibody.

In the case of `N=C(N)NCCC[C@@H](N)C(=O)O` [D-arginine], the Kd on RNA molecules was 1700 nM.

As to `c1cc2ccc3cccc4ccc(c1)c2c34` [pyrene], the Staining of beads entry with anti-dig is listed as “no staining”.
